The subject of this test is WT Mtb Erdman strain. The experiment in a line: Microplate Alamar Blue Assay (MABA), Mtb growth inhibition. The note with it: Mycobacterium tuberculosis, ERDMAN, 168 h, Middlebrook 7H9 media, 7 days at 37° C. in 5% CO2. The class given is cell-based, Mycobacterium tuberculosis.
On to `COC1CN(c2nc(NCCCc3ccccc3)c3cc(C)sc3n2)C1` [Example 518, 2-(3-methoxyazetidin-1-yl)-6-methyl-N-(3-phenylpropyl)thieno[2,3-d]pyrimidin-4-amine], for which the IC50 came out at 1900 nM.

As for `Cc1cc2c(NCCCc3ccccc3)nc(N3CCSC3)nc2s1` [Example 519, 6-methyl-N-(3-phenylpropyl)-2-(thiazolidin-3-yl)thieno[2,3-d]pyrimidin-4-amine], the half-maximal inhibitory concentration (IC50) worked out at 900 nM. Compared with the last compound, the IC50 is about 2.1-fold lower.

`CCN(CC)c1nc(NCCCc2ccccc2)c2cc(C)sc2n1` [Example 520, N2,N2-diethyl-6-methyl-N4-(3-phenylpropyl)thieno[2,3-d]pyrimidine-2,4-diamine] returned an IC50 greater than 10000 nM.

On to `CNc1nc(NCCCc2ccccc2)c2cc(C)sc2n1` [Example 521, N2,6-dimethyl-N4-(3-phenylpropyl)thieno[2,3-d]pyrimidine-2,4-diamine], for which the midpoint of inhibition, the IC50, lay at 250 nM.

Turning to `Cc1cc2c(NCCCc3ccccc3)nc(NC3CC3)nc2s1` [Example 522, N2-cyclopropyl-6-methyl-N4-(3-phenylpropyl)thieno[2,3-d]pyrimidine-2,4-diamine], the half-maximal inhibitory concentration (IC50) was 4200 nM. Against the preceding compound, the IC50 is about 17-fold higher.

`Cc1cc2c(N[C@@H]3C[C@H]3c3ccc(F)c(F)c3)nc(N3CCC(F)(F)C3)nc2s1` [Example 523, N-((1R,2S)-2-(3,4-difluorophenyl)cyclopropyl)-2-(3,3-difluoropyrrolidin-1-yl)-6-methylthieno[2,3-d]pyrimidin-4-amine] returned an IC50 of 4500 nM.

`Cc1cc2c(N[C@@H]3C[C@H]3c3ccc(F)c(F)c3)nc(N3CC(F)(F)C3)nc2s1` [Example 524, 2-(3,3-difluoroazetidin-1-yl)-N-((1R,2S)-2-(3,4-difluorophenyl)cyclopropyl)-6-methylthieno[2,3-d]pyrimidin-4-amine] displayed an IC50 greater than 10000 nM.

Regarding `CNc1nc(N[C@@H]2C[C@H]2c2ccc(F)c(F)c2)c2cc(C)sc2n1` [Example 525, N4-((1R,2S)-2-(3,4-difluorophenyl)cyclopropyl)-N2,6-dimethylthieno[2,3-d]pyrimidine-2,4-diamine], the 50% inhibitory concentration (IC50) is 4800 nM.

Take `Cc1cc2c(N[C@@H]3C[C@H]3c3ccc(F)c(F)c3)nc(NC3COC3)nc2s1` [Example 526, N4-((1R,2S)-2-(3,4-difluorophenyl)cyclopropyl)-6-methyl-N2-(oxetan-3-yl)thieno[2,3-d]pyrimidine-2,4-diamine]: the IC50 is greater than 10000 nM.

In the case of `Cc1cc2c(N[C@@H]3C[C@H]3c3ccc(F)c(F)c3)nc(N)nc2s1` [Example 527, N4-((1R,2S)-2-(3,4-difluorophenyl)cyclopropyl)-6-methylthieno[2,3-d]pyrimidine-2,4-diamine], the IC50 was greater than 10000 nM.

`Cc1cc2c(NCCCc3ccc(-c4ccc(OC(F)(F)F)cc4)cc3)nc(N3CCCC3)nc2s1` [Example 528, 6-methyl-2-(pyrrolidin-1-yl)-N-(3-(4′-(trifluoromethoxy)-[1,1′-biphenyl]-4-yl)propyl)thieno[2,3-d]pyrimidin-4-amine]: the half-maximal inhibitory concentration (IC50) was determined as 18 nM.

With `Cc1cc2c(NCCCc3ccccc3)nc(NCc3ccco3)nc2s1` [Example 529, N2-(furan-2-ylmethyl)-6-methyl-N4-(3-phenylpropyl)thieno[2,3-d]pyrimidine-2,4-diamine], the concentration for half-maximal inhibition (IC50) was greater than 10000 nM.

Turning to `Cc1cc2c(NCCCc3ccc(-c4ccc(Cl)cc4)cc3)nc(N(C)C)nc2s1` [Example 531, N4-(3-(4′-chloro-[1,1′-biphenyl]-4-yl)propyl)-N2,N2,6-trimethylthieno[2,3-d]pyrimidine-2,4-diamine], the IC50 came out at 12 nM.

In turn, `CNc1nc(NCCCc2ccc(-c3ccc(OC(F)(F)F)cc3)cc2)c2cc(C)sc2n1` [Example 532, N2,6-dimethyl-N4-(3-(4′-(trifluoromethoxy)-[1,1′-biphenyl]-4-yl)propyl)thieno[2,3-d]pyrimidine-2,4-diamine] came in with an IC50 of 49 nM.

As a reminder, the IC50 is the concentration that inhibits the measured activity by half. A high value points to weaker potency.

For the origin of these results see patent publication US20240279236A1, “COMPOUNDS AND METHODS OF TREATING TUBERCULOSIS” (Fimbrion Therapeutics, Inc., priority 2021, published 2024).
